Results on 26 compounds are retold here after ChEMBL document CHEMBL3627713, “Triazole linked mono carbonyl curcumin-isatin bifunctional hybrids as novel anti tubulin agents: Design, synthesis, biological evaluation and molecular modeling studies” (Bioorg Med Chem, 2015).

Common to all, as to assay type: functional
One assay concerns COLO 205. As to the kind of experiment: Cytotoxicity against human COLO205 cells assessed as growth inhibition at 50 uM after 48 hrs by sulforhodamine B assay relative to control. The settings on record: COLO 205, 48 h, read-out: GI.
Another assay concerns PC-3. As to the kind of experiment: Cytotoxicity against human PC3 cells assessed as growth inhibition at 50 uM after 48 hrs by sulforhodamine B assay relative to control. The conditions noted are these: PC-3, 48 h, read-out: GI.
For another assay, the system named is HCT-116. As to the kind of experiment: Cytotoxicity against human HCT116 cells assessed as growth inhibition at 50 uM after 48 hrs by sulforhodamine B assay relative to control. The settings on record: HCT-116, 48 h, read-out: GI. In general terms: In SRB staining, fixed cells bind dye roughly in proportion to their protein.
Another assay deals with THP-1. As to the kind of experiment: Cytotoxicity against human THP1 cells assessed as growth inhibition at 50 uM after 48 hrs by sulforhodamine B assay relative to control. The settings on record: THP-1, 48 h, read-out: GI.
Another assay concerns A549. As to the kind of experiment: Cytotoxicity against human A549 cells assessed as growth inhibition at 50 uM after 48 hrs by sulforhodamine B assay relative to control. The settings on record: A549, 48 h, read-out: GI.
In a further assay the test system is HeLa. As to the kind of experiment: Cytotoxicity against human HeLa cells assessed as growth inhibition at 50 uM after 48 hrs by sulforhodamine B assay relative to control. The settings on record: read-out: GI.
A further assay relates to CAKI-1. As to the kind of experiment: Cytotoxicity against human Caki1 cells assessed as growth inhibition at 50 uM after 48 hrs by sulforhodamine B assay relative to control. The settings on record: CAKI-1, 48 h, read-out: GI.
Assay [1] is described as follows: Cytotoxicity against human MIAPaCa2 cells assessed as growth inhibition at 50 uM after 48 hrs by sulforhodamine B assay relative to control. The conditions noted are these: MIA PaCa-2, 48 h, read-out: GI.

For the compound `COc1cc(/C=C/C(=O)/C=C/c2ccco2)ccc1OCc1cn(CCN2C(=O)C(=O)c3cc(Br)ccc32)nn1`, the inhibition of growth at 50 µM in the assay with COLO 205 is 33%; in the assay with PC-3, 31%; with HCT-116 it was 39%; with THP-1, 37%.
Turning to `COc1ccc(/C=C/C(=O)/C=C/c2ccc(OCc3cn(CCN4C(=O)C(=O)c5cc(Br)ccc54)nn3)c(OC)c2)cc1OC`, the inhibition of growth at 50 µM was 63% in the assay on COLO 205; 61% in the assay on PC-3; 10% in the assay on A549; 12% in the assay on HeLa; 10% with CAKI-1; 69% with HCT-116. Besides, the inhibition of growth at 50 µM was found to be 12% in assay [1] and 65% in the assay with THP-1.
For `COc1cc(/C=C/C(=O)/C=C/c2ccc([N+](=O)[O-])cc2)ccc1OCc1cn(CCN2C(=O)C(=O)c3cc(Br)ccc32)nn1`, the inhibition of growth at 50 µM in the assay on COLO 205, with PC-3 and in the assay on HCT-116 was 10% in each case.
On to `COc1cc(/C=C/C(=O)/C=C/c2ccc(Cl)cc2)ccc1OCc1cn(CCN2C(=O)C(=O)c3cc(Cl)ccc32)nn1`, for which the inhibition of growth at 50 µM with COLO 205 stood at 29%; in the assay with PC-3, 25%; in the assay on HCT-116, 36%; in the assay on THP-1 it was 30%.
`COc1ccc(/C=C/C(=O)/C=C/c2ccc(OCc3cn(CCN4C(=O)C(=O)c5cc(Br)ccc54)nn3)c(OC)c2)cc1`: the inhibition of growth at 50 µM in the assay on COLO 205 stood at 59%; in the assay with PC-3, 57%; in the assay with HeLa it was 10%; with HCT-116, 65%; in assay [1], 10%; in the assay on THP-1, 60%.
For `COc1cc(/C=C/C(=O)/C=C/c2cccc(Br)c2)ccc1OCc1cn(CCN2C(=O)C(=O)c3cc(Cl)ccc32)nn1`, the inhibition of growth at 50 µM in the assay with COLO 205 came out at 10%; in the assay on PC-3 it was 14%; in the assay on HCT-116, 19%; in the assay on THP-1, 12%.
On the same counts, the results for `COc1cc(/C=C/C(=O)/C=C/c2ccc(Cl)cc2)ccc1OCc1cn(CCN2C(=O)C(=O)c3ccccc32)nn1` are 50%, 45%, 51% and 49%.
On the same counts, the results for `COc1cc(/C=C/C(=O)/C=C/c2cccc(Br)c2)ccc1OCc1cn(CCN2C(=O)C(=O)c3cc(Br)ccc32)nn1` are 11%, 13%, 13% and 12%.
Regarding `COc1cc(/C=C/C(=O)/C=C/c2cccc3ccccc23)ccc1OCc1cn(CCN2C(=O)C(=O)c3cc(Br)ccc32)nn1`, the inhibition of growth at 50 µM was found to be 40% with COLO 205, 37% in the assay on PC-3, 44% with HCT-116 and 40% in the assay on THP-1.
Turning to `COc1cc(/C=C/C(=O)/C=C/c2ccc(Br)cc2)ccc1OCc1cn(CCN2C(=O)C(=O)c3cc(Cl)ccc32)nn1`, the inhibition of growth at 50 µM with COLO 205 amounted to 20%; with PC-3, 23%; with HCT-116, 24%; in the assay on THP-1 it was 25%.
Consider `COc1cc(/C=C/C(=O)/C=C/c2ccc(Br)cc2)ccc1OCc1cn(CCN2C(=O)C(=O)c3ccccc32)nn1`, for which the inhibition of growth at 50 µM in the assay with COLO 205 worked out at 47%; in the assay with PC-3, 44%; in the assay with HCT-116, 49%; in the assay on THP-1, 48%.
Regarding `COc1cc(/C=C/C(=O)/C=C/c2ccco2)ccc1OCc1cn(CCN2C(=O)C(=O)c3cc(Cl)ccc32)nn1`, the inhibition of growth at 50 µM with COLO 205 was 39%; in the assay with PC-3, 40%; in the assay with HCT-116, 47%; in the assay with THP-1, 41%.
Consider `COc1cc(/C=C/C(=O)/C=C/c2ccccc2)ccc1OCc1cn(CCN2C(=O)C(=O)c3cc(Cl)ccc32)nn1`, for which the inhibition of growth at 50 µM in the assay with COLO 205 stood at 63%; in the assay on PC-3, 58%; with A549, 21%; in the assay on HeLa, 14%; in the assay with CAKI-1, 13%; in the assay on HCT-116, 68%. Besides, the inhibition of growth at 50 µM in assay [1] worked out at 13%; in the assay on THP-1 it was 65%.
As to `COc1cc(/C=C/C(=O)/C=C/c2ccc(Br)cc2)ccc1OCc1cn(CCN2C(=O)C(=O)c3cc(Br)ccc32)nn1`, the inhibition of growth at 50 µM in the assay with COLO 205 was determined as 19%; in the assay on PC-3, 17%; in the assay with HCT-116 it was 20%; in the assay on THP-1, 21%.
Consider `COc1cc(/C=C/C(=O)/C=C/c2ccc(Cl)cc2)ccc1OCc1cn(CCN2C(=O)C(=O)c3cc(Br)ccc32)nn1`, for which the inhibition of growth at 50 µM in the assay with COLO 205 worked out at 24%; in the assay on PC-3, 23%; in the assay with HCT-116 it was 29%; in the assay with THP-1, 25%.
Regarding `COc1ccccc1/C=C/C(=O)/C=C/c1ccc(OCc2cn(CCN3C(=O)C(=O)c4cc(Cl)ccc43)nn2)c(OC)c1`, the inhibition of growth at 50 µM in the assay on COLO 205 is 47%; in the assay with PC-3, 42%; with A549, 11%; with HCT-116 it was 50%; in the assay on THP-1, 43%.
On to `COc1cccc(/C=C/C(=O)/C=C/c2ccc(OCc3cn(CCN4C(=O)C(=O)c5cc(Br)ccc54)nn3)c(OC)c2)c1`, for which the inhibition of growth at 50 µM in the assay on COLO 205 came to 56%; in the assay on PC-3 it was 51%; in the assay with HCT-116, 57%; in the assay on THP-1, 54%.
With `COc1cc(/C=C/C(=O)/C=C/c2ccc([N+](=O)[O-])cc2)ccc1OCc1cn(CCN2C(=O)C(=O)c3ccccc32)nn1`, the inhibition of growth at 50 µM is 35% in the assay on COLO 205, 33% in the assay on PC-3, 39% in the assay with HCT-116 and 35% with THP-1.
Consider `COc1cccc(/C=C/C(=O)/C=C/c2ccc(OCc3cn(CCN4C(=O)C(=O)c5cc(Cl)ccc54)nn3)c(OC)c2)c1`, for which the inhibition of growth at 50 µM with COLO 205 turned out to be 52%; in the assay on PC-3 it was 51%; in the assay on A549, 13%; with HeLa, 10%; in the assay with HCT-116, 58%; in the assay with THP-1 it was 55%.
`COc1ccccc1/C=C/C(=O)/C=C/c1ccc(OCc2cn(CCN3C(=O)C(=O)c4cc(Br)ccc43)nn2)c(OC)c1`: the inhibition of growth at 50 µM in the assay on COLO 205 came to 47%; with PC-3 it was 42%; in the assay on HCT-116, 50%; in the assay with THP-1, 43%.
Taken in the same sequence, the figures for `COc1cc(/C=C/C(=O)/C=C/c2cccs2)ccc1OCc1cn(CCN2C(=O)C(=O)c3cc(Br)ccc32)nn1` were 30%, 28%, 34% and 31%.
As for `COc1cc(/C=C/C(=O)/C=C/c2ccccc2)ccc1OCc1cn(CCN2C(=O)C(=O)c3cc(Br)ccc32)nn1`, the inhibition of growth at 50 µM in the assay on COLO 205 turned out to be 51%; with PC-3 it was 50%; in the assay on A549, 11%; in the assay with HeLa it was 14%; with CAKI-1 it was 12%; in the assay on HCT-116, 56%. Also, the inhibition of growth at 50 µM worked out at 16% in assay [1] and 54% with THP-1.
For `COc1cc(/C=C/C(=O)/C=C/c2ccc([N+](=O)[O-])cc2)ccc1OCc1cn(CCN2C(=O)C(=O)c3cc(Cl)ccc32)nn1`, the inhibition of growth at 50 µM with PC-3 worked out at 10%; with HCT-116, 11%.
Regarding `COc1cc(/C=C/C(=O)/C=C/c2cccc([N+](=O)[O-])c2)ccc1OCc1cn(CCN2C(=O)C(=O)c3ccccc32)nn1`, the inhibition of growth at 50 µM in the assay on COLO 205 worked out at 22%; in the assay with PC-3, 20%; in the assay with HCT-116 it was 25%; with THP-1, 24%.
Consider `COc1cc(/C=C/C(=O)/C=C/c2cccs2)ccc1OCc1cn(CCN2C(=O)C(=O)c3cc(Cl)ccc32)nn1`, for which the inhibition of growth at 50 µM in the assay on COLO 205 was 35%; in the assay on PC-3, 37%; in the assay with HCT-116, 44%; with THP-1 it was 38%.
Taken in the same sequence, the figures for `COc1cc(/C=C/C(=O)/C=C/c2cccc(Br)c2)ccc1OCc1cn(CCN2C(=O)C(=O)c3ccccc32)nn1` were 36%, 35%, 42% and 40%.
